In brackets after ≈: the same amount, converted by molar mass.
Details: not given

| Structure (SMILES) | logP |
| --- | --- |
| CCCOC(=O)Nc1ccccc1 | 2.8 |
| CON(C)C(=O)Nc1ccc(Br)cc1 | 2.38 |
| CNC(=O)Nc1ccc(C)c(Cl)c1 | 2.61 |
| NC(=O)Nc1cccc(C(F)(F)F)c1 | 2.31 |
| CCCCOC(=O)Nc1ccccc1 | 3.3 |
| CNC(=O)Nc1cccc(Cl)c1 | 2.18 |

Results, then the compound that gave them:

| logP | Structure (SMILES) |
| --- | --- |
| 0.83 | COc1ccc(NC(=O)N(C)C)cc1 |
| 2.65 | O=C(Nc1ccccc1)NC1CCCC1 |
| 1.59 | Cc1cc(NC(N)=O)ccc1F |
| 1.73 | COc1cccc(NC(=O)N(C)C)c1 |
| 3.25 | O=[N+]([O-])c1ccc(Br)c(Cl)c1 |
| 1.37 | COc1ccc(NC(N)=O)cc1Cl |
| 2.94 | CNC(=O)Nc1ccc(Cl)c(Cl)c1 |

Same assay, conditions: 25 °C

| solubility [mM] | Structure (SMILES) |
| --- | --- |
| 39.8 (≈ 6750 µg/mL) | CC(=O)Nc1ccccc1Cl |
| 8.11 (≈ 1210 µg/mL) | CC(=O)Nc1cccc(C)c1 |

— the OPERA property sets (Mansouri et al. 2018)
